Test results reported in patent US4002530A, “6-Aminopenicillanic acid derivative” (Recherche et Industrie Therapeutiques (R.I.T.), priority 1975, dated 1977).
Converted amounts (≈) assume the structure as drawn. Where a name gives a salt, the structure may show the parent alone. Read-outs that look alike come from different tables or passages of the source.

Legend:
mice = details: mouse, in vivo, iv, 500 mg/kg
solubility = assay type: physicochemical
[1] = test system: Gram-positive and Gram-negative bacteria; assay: inhibitory activity against growth of bacteria; assay type: cell-based; details: for inhibitory activity against the growth of bacteria: Gram-positive and Gram-negative bacteria; for antibacterial activity relative to another RIT 2214 form: compared with the RIT 2214 form named in the sentence
Method: (§1) Antibiotic RIT D-2214 has been tested in form of the mono ammonium salt in position 3 of the penam nucleus and, for that reason, is herein below charcterized as this monoammonium salt.
(§2) The inhibitory levels were determined by the broth dilution test. A series of tubes containing varied concentrations of the monoammonium salt of antibiotic RIT D-2214 were inoculated with the test organism to determine the minimum concentration of the ammonium salt of antibiotic RIT D-2214 in mcg/ml. in the broth substrate which inhibited organism growth for a period of about twenty hours at 35° C.

Salmonella panama = assay: broth dilution test, minimum inhibitory concentration; assay type: cell-based; details: Salmonella enterica, about 20 hours at 35° C, tested as monoammonium salt
in vivo [2] = assay: in vivo; set-up: species or system mice; details: mouse, sc, 20 mg/kg
Description: (§3) Plasma samples were adequately diluted with sterile water and assayed according to the usual agar diffusion method, using Bacillus subtilis ATCC 6633 as the test organism.

Salmonella typhimurium = assay: broth dilution test, minimum inhibitory concentration; assay type: cell-based; details: Salmonella enterica, about 20 hours at 35° C, tested as monoammonium salt
[3] = test system: Staphylococcus aureus Pen.resist.; assay: as above; assay type: cell-based; details: penicillin resistant, about 20 hours at 35° C, tested as monoammonium salt
Brucella abortus = assay: microbe, parasite or virus in culture; assay type: cell-based; details: 20 h, read-out: Minimum Inhibitory concentration
Corynebacterium xerosis = assay: broth dilution test, minimum inhibitory concentration; assay type: cell-based; details: about 20 hours at 35° C, tested as monoammonium salt
Proteus morganii = assay: as above; assay type: cell-based; details: Morganella morganii, about 20 hours at 35° C, tested as monoammonium salt
Salmonella anatum = assay: as above; assay type: cell-based; details: Salmonella enterica, about 20 hours at 35° C, tested as monoammonium salt
[4] = test system: Staphylococcus aureus 663; assay: mice protection test; assay type: in vivo; details: Staphylococcus aureus, 663, sc, 72 h; s.c., one hour after intravenous infection, observed 3 days; read-out: ED50 (total dose required to protect 50% of the infected mice)
Method: (§4) Comparative trials with ampicillin were performed in vivo according to the usual mice protection test procedure. The test compound was administered in graded dilutions to mice either subcutaneously (s.c.) in water or orally (or.) in combination with calcium carbonate one hour after intravenous infection with uniformly lethal doses of the test organism.

Escherichia coli 47 = assay: mice protection test; assay type: in vivo; details: Escherichia coli, 47, sc, 72 h; s.c., one hour after intravenous infection, observed 3 days; read-out: ED50 (total dose required to protect 50% of the infected mice)
Method: as §4

[5] = test system: Salmonella enteritidis 24; assay: mice protection test; assay type: in vivo; details: Salmonella enterica, sc, 72 h, s.c., one hour after intravenous infection, observed 3 days, read-out: ED50 (total dose required to protect 50% of the infected mice)
Method: as §4

Escherichia coli 9 = assay: mice protection test; assay type: in vivo; details: Escherichia coli, 9, sc, 72 h; s.c., one hour after intravenous infection, observed 3 days; read-out: ED50 (total dose required to protect 50% of the infected mice)
Method: as §4

[6] = test system: Klebsiella pneumoniae SK&F 4200; assay: mice protection test; assay type: in vivo; details: 72 h, one hour after intravenous infection, observed 3 days, read-out: ED50 (total dose required to protect 50% of the infected mice)
Method: as §4

Proteus mirabilis 11 = assay: mice protection test; assay type: in vivo; details: Proteus mirabilis, 11, sc, 72 h; s.c., one hour after intravenous infection, observed 3 days; read-out: ED50 (total dose required to protect 50% of the infected mice)
Method: as §4

Shigella flexneri 25 = assay: mice protection test; assay type: in vivo; details: Shigella flexneri, 25, sc, 72 h; s.c., one hour after intravenous infection, observed 3 days; read-out: ED50 (total dose required to protect 50% of the infected mice)
Method: as §4

[7] = test system: Salmonella brandebourg 22; assay: mice protection test; assay type: in vivo; details: Salmonella, 22, sc, 72 h; s.c., one hour after intravenous infection, observed 3 days; read-out: ED50 (total dose required to protect 50% of the infected mice)
Method: as §4

[8] = test system: Vibrio parahaemoliticus 194; assay: mice protection test; assay type: in vivo; details: Vibrio, 194, 72 h; oral with calcium carbonate, one hour after intravenous infection, observed 3 days; read-out: ED50 (total dose required to protect 50% of the infected mice)
Method: as §4

Salmonella panama 20 = assay: mice protection test; assay type: in vivo; details: Salmonella enterica, 20, sc, 72 h; s.c., one hour after intravenous infection, observed 3 days; read-out: ED50 (total dose required to protect 50% of the infected mice)
Method: as §4

Bacillus subtilis = assay: broth dilution test, minimum inhibitory concentration; assay type: cell-based; details: about 20 hours at 35° C, tested as monoammonium salt
Alcaligenes faecalis = assay: as above; assay type: cell-based; details: about 20 hours at 35° C, tested as monoammonium salt
[9] = test system: Bordetella bronchiseptica; assay: as above; assay type: cell-based; details: about 20 hours at 35° C, tested as monoammonium salt
Pseudomonas aeruginosa = assay: as above; assay type: cell-based; details: about 20 hours at 35° C, tested as monoammonium salt
in vivo [10] = assay: in vivo; set-up: species or system rats; details: rat, sc, 20 mg/kg
Description: as §3

Salmonella typhi = assay: broth dilution test, minimum inhibitory concentration; assay type: cell-based; details: Salmonella enterica, 20 h, read-out: Minimum Inhibitory concentration
in vivo [11] = assay: in vivo; set-up: species or system dogs; details: dog, sc, 20 mg/kg
Description: as §3

Shigella sonnei = assay: broth dilution test, minimum inhibitory concentration; assay type: cell-based; details: about 20 hours at 35° C, tested as monoammonium salt
Method: as §1, §2

physchem = assay type: physicochemical; details: reconstituted gastric juice, pH 1.3
Description: Antibiotic RIT D-2214 can be colorimetrically assayed by the classical hydroxylamine method of penicillin assay. […] Recoveries were estimated according to the hydroxylamine assay method.

E. coli Pen. resistant = assay: broth dilution test, minimum inhibitory concentration; assay type: cell-based; details: Escherichia coli, penicillin resistant, about 20 hours at 35° C, tested as monoammonium salt
Salmonella meleagridis = assay: as above; assay type: cell-based; details: about 20 hours at 35° C, tested as monoammonium salt
Klebsiella pneumoniae = assay: as above; assay type: cell-based; details: about 20 hours at 35° C, tested as monoammonium salt
Salmonella paratyphi = assay: as above; assay type: cell-based; details: Salmonella enterica, 20 h, read-out: Minimum Inhibitory concentration
Escherichia coli = assay: as above; assay type: cell-based; details: broth dilution, about 20 hours at 35° C, tested as monoammonium salt, read-out: Minimum Inhibitory concentration
Aerobacter aerogenes = assay: as above; assay type: cell-based; details: Klebsiella aerogenes; broth dilution, about 20 hours at 35° C; tested as monoammonium salt; read-out: Minimum Inhibitory concentration
Proteus mirabilis = assay: as above; assay type: cell-based; details: broth dilution, about 20 hours at 35° C, tested as monoammonium salt, read-out: Minimum Inhibitory concentration
Staphylococcus aureus = assay: as above; assay type: cell-based; details: about 20 hours at 35° C, tested as monoammonium salt
Method: as §1, §2

CC1(C)S[C@@H]2[C@H](NC(=O)CSC[C@@H](N)C(=O)O)C(=O)N2[C@H]1C(=O)O
detectable toxicity (mice): does not show any detectable toxicity
solubility in methanol (solubility; methanol): slightly soluble in methanol
solubility in other organic solvents (solubility; organic solvents other than methanol): insoluble in other organic solvents
solubility in water (solubility; water): very soluble in water

CC1(C)S[C@@H]2[C@H](NC(=O)CSC[C@H](N)C(=O)O)C(=O)N2[C@H]1C(=O)O
inhibitory activity against the growth of bacteria [1]: active against Grampositive and negative bacteria
antibacterial activity relative to another RIT 2214 form [1]: less than the monoammonium salt of RIT D-2214

CC1(C)S[C@@H]2[C@H](NC(=O)CSCC(N)C(=O)O)C(=O)N2[C@H]1C(=O)O (mixture of isomers) [RIT DL-2214]
antibacterial activity relative to another RIT 2214 form [1]: approximately half

CC1(C)S[C@@H]2[C@H](NC(=O)[C@H](N)c3ccccc3)C(=O)N2[C@H]1C(=O)O [Ampicillin, ampicillin, reference compound]
MIC (Salmonella panama): 2.5 µg/mL
concentration at 5 min (in vivo [2]): 6500 ng/mL
concentration at 0.25 h (in vivo [2]): 9000 ng/mL
concentration at 0.5 h (in vivo [2]): 3500 ng/mL
concentration at 1 h (in vivo [2]): 1000 ng/mL
MIC (Salmonella typhimurium): 40 µg/mL
MIC [3]: 20 µg/mL
MIC (Brucella abortus): 0.6 µg/mL (≈ 1.72 µM)
MIC (Corynebacterium xerosis): 0.1 µg/mL
MIC (Proteus morganii): 20 µg/mL
MIC (Salmonella anatum): 0.6 µg/mL
ED50 [4]: < 11 mg/kg
ED50 (Escherichia coli 47): 23.6 mg/kg
ED50 [5]: 55.6 mg/kg
ED50 (Escherichia coli 9): 11.5 mg/kg
ED50 ([6]; oral with calcium carbonate): 50.4 mg/kg
ED50 ([6]; sc, s.c.): 36.7 mg/kg
ED50 (Proteus mirabilis 11): 14.8 mg/kg
ED50 (Shigella flexneri 25): > 100 mg/kg
ED50 [7]: 36.4 mg/kg
ED50 [8]: 17.9 mg/kg
ED50 (Salmonella panama 20): 22 mg/kg
MIC (Bacillus subtilis): 0.3 µg/mL
MIC (Alcaligenes faecalis): 1.6 µg/mL
MIC [9]: 0.6 µg/mL
MIC (Pseudomonas aeruginosa): 80 µg/mL
concentration at 5 min (in vivo [10]): 7000 ng/mL
concentration at 0.25 h (in vivo [10]): 13000 ng/mL
concentration at 1 h (in vivo [10]): 5000 ng/mL
concentration at 2 h (in vivo [10]): 2500 ng/mL
MIC (Salmonella typhi): 0.6 µg/mL (≈ 1.72 µM)
concentration at 0.25 h (in vivo [11]): 13000 ng/mL
concentration at 0.5 h (in vivo [11]): 18000 ng/mL
concentration at 1 h (in vivo [11]): 18000 ng/mL
concentration at 2 h (in vivo [11]): 9000 ng/mL
MIC (Shigella sonnei): 2.5 µg/mL
half-life (physchem): 6.5 h
MIC (E. coli Pen. resistant): 80 µg/mL
MIC (Salmonella meleagridis): 0.6 µg/mL
MIC (Klebsiella pneumoniae): 40 µg/mL

CC1(C)S[C@@H]2[C@H](NC(=O)CSC[C@H](N)C(=O)O)C(=O)N2[C@H]1C(=O)O [RIT L-2214]
MIC (Salmonella paratyphi): 20 µg/mL (≈ 53 µM)
MIC [3]: 80 µg/mL
MIC (Proteus morganii): 80 µg/mL
MIC (Escherichia coli): 40 µg/mL
MIC (Bacillus subtilis): 0.31 µg/mL
MIC (Aerobacter aerogenes): 20 µg/mL
MIC (Proteus mirabilis): 20 µg/mL
MIC (Pseudomonas aeruginosa): 80 µg/mL
MIC (Shigella sonnei): 80 µg/mL
MIC (Staphylococcus aureus): 1.25 µg/mL
MIC (E. coli Pen. resistant): 80 µg/mL
MIC (Klebsiella pneumoniae): 80 µg/mL

CC1(C)S[C@@H]2[C@H](NC(=O)CSC[C@@H](N)C(=O)O)C(=O)N2[C@H]1C(=O)O [monoammonium salt of antibiotic RIT D-2214]
inhibitory activity against the growth of bacteria [1]: strong activity

CC1(C)S[C@@H]2[C@H](NC(=O)Cc3ccccc3)C(=O)N2[C@H]1C(=O)O [penicillin G, reference compound]
half-life (physchem): 0.117 h
